Data as given in patent publication US8323917B2, “Method of screening for compounds that inhibit the enzymatic activity of GWT1 gene product” (priority 2002, dated 2012).

Key:
[1] = biological target: T1, GWT1 gene product (Gwt1 protein) in membrane fraction (Saccharomyces cerevisiae, UniProt P47026); assay: acylated GPI detection system (GPI acylation assay, TLC of GlcN-(acyl)PI); assay type: biochemical, S. cerevisiae; details: UDP-[14C]GlcNAc, TLC/autoradiography, FIGS. 3 and 4
T1 construct: made in house; host or cells: S. cerevisiae Δgwt1 strain carrying the YEp352GAPIIClaIΔSal-GWT1 overexpression plasmid; total membrane fraction
T1 sequence (P47026 whole entry): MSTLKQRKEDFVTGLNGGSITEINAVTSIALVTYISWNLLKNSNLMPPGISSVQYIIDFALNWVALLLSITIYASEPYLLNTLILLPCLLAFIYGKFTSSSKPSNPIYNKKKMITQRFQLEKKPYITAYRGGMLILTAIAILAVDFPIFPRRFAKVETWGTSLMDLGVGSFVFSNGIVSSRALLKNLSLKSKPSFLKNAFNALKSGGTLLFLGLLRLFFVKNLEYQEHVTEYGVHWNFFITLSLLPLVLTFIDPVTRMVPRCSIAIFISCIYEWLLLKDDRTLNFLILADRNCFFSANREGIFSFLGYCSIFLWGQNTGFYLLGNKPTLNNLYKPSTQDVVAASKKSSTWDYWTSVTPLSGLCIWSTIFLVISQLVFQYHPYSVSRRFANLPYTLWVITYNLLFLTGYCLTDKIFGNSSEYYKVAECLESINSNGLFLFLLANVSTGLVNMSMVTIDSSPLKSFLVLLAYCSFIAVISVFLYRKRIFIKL
Method: Wild-type S. cerevisiae strain, the GWT1 gene-deficient strain Δgwt1, and the strain Δgwt1 into which the GWT1 overexpression plasmid was introduced were each cultured in 100 ml of YPD medium shaken at 24° C., and then harvested in the middle logarithmic growth phase (0D600=1˜3). The fungal cells were washed with TM buffer (50 mM Tris-HCl (pH 7.5) and 2 mM MgCl2), and then suspended in 2 ml of TM buffer+protease inhibitor (1 tablet of Complete™, protease inhibitor, (Roche)/25 ml). 1.5 ml of glass beads was added to the suspension. The mixture was vortexed for 30 seconds, and then placed on ice for 30 seconds. These procedures were repeated ten times to disrupt the fungal cells. The cell homogenate was transferred into a new tube, and centrifuged at 1000 g at 4° C. for five minutes to precipitate the glass beads and undisrupted fungal cells. The supernatant was transferred to another tube, and centrifuged at 13 000g at 4° C. for 20 minutes to precipitate the membrane fraction comprising organelles (total membrane fraction). The resulting precipitate was used as the membrane fraction.
The membrane fraction preparation (300 μg protein) was diluted with a buffer consisting of 50 mM Tris-HCl (pH7.5), 2 mM MgCl2, 2 mM MnCl2, 1 mM ATP, 1 mM Coenzyme A, 21 μg/ml tunicamycin, 10 μM nikkomycin Z, and 0.5 mM Dithiothreitol. The solution was adjusted to a total of 140 μl for use as a reaction solution. After incubating the solution at 24° C. for 15 minutes, 15 μCi UDP-[^14C]GlcNAc was added to the tube and then incubated at 24° C. for another one hour. 1 ml of chloroform:methanol (1:2) was added to the solution and stirred to stop the reaction. Then, lipid was extracted from the solution, dried, and desalted by butanol extraction. Acylated GPI (GlcN-(acyl)PI), non-acylated GPI (GlcN-PI), and GPI which was neither acylated nor deacylated (GlcNAc-PI) were separated by thin-layer chromatography (HCl3/CH3OH/1 M NH4OH (10:10:3)). Each spot was detected by autoradiography. […]

GWT1 gene products = details: reporter system reflecting the activity of the GWT1 gene products; cited from earlier work

CC(=O)N(C)CCCc1ccc(Cc2nccc3ccccc23)cc1 [Example B73, N-(3-(4-(1-isoquinolylmethyl)phenyl)propyl)-N-methylacetamide]
spot intensity of acylated GPI (GlcN-(acyl)PI) [1]: not observed to decrease
inhibitory activity IC50 (Table 1 in WO 02/04626) (GWT1 gene products): 50 µg/mL

CCCCc1ccc(Cc2nccc3ccccc23)cc1 [Example B2, 1-(4-butylbenzyl)isoquinoline]
spot intensity of acylated GPI (GlcN-(acyl)PI) [1]: dose-dependent decrease

CCCCc1ccc(Cc2nccc3ccccc23)c(O)c1 [Example B85, 5-butyl-2-(1-isoquinolylmethyl)phenol]
spot intensity of acylated GPI (GlcN-(acyl)PI) [1]: dose-dependent decrease
